22 compounds from patent publication US20260250272A1, “N-SUBSTITUTED QUINOLINONE COMPOUND, PREPARATION METHOD THEREFOR AND USE THEREOF” (VIGONVITA LIFE SCIENCES CO., LTD., priority 2022, published 2026) can be followed below.

The nature of series [1]: Human liver microsome assay. Type of series: in vitro ADME. The conditions noted are these: for half-life at 1 μM / CLint scaled at 1 μM: pH 7.41, human liver microsomes 0.5 mg/mL, compound 1 μM, NADPH 2 mM; for half-life at 1 μM: read-out: Half-life (t1/2, min); for CLint scaled at 1 μM: read-out: Intrinsic clearance (Clint, mL/min/kg). The procedure: Preparation of magnesium-potassium buffer solution: a 100 mM potassium buffer and 5 mM MgCl2 were preheated together to obtain a magnesium-potassium buffer at a pH of 7.41. Preparation of 0.5 mM working solution: a 10 mM compound stock solution was added to 95 μL of acetonitrile. Preparation of 1.5 μM working solution containing microsomes (0.75 mg/mL): 1.5 μL of the 0.5 mM working solution and 18.75 μL of 20 mg/mL human liver microsome solution were added to 479.75 μL of the magnesium-potassium buffer. Preparation of NADPH stock solution (6 mM, 5 mg/mL): NADPH was dissolved in the magnesium-potassium buffer. 30 μL of 1.5 μM working solution containing 0.75 mg/mL human liver microsomes were added to each of the wells of a 96-well plate, and the plate was pre-incubated at 37° C. for 5 min. For a sample at 0 min, 150 μL of acetonitrile solution containing an internal standard was added, and then 15 μL of NADPH stock solution (6 mM) was added to initiate the reaction. For samples at other time points, 15 μL of NADPH stock solution (6 mM) was directly added to initiate the reaction. Final content of components: compound (1 μM), human liver microsomes (0.5 mg/mL), and NADPH (2 mM). 150 μL of cold stop buffer containing an internal standard was added at time points of 5 min, 15 min, 30 min, and 45 min to stop the sample reaction, the plate was centrifuged at 600 rpm for 10 min and then at 6000 rpm for 15 min, and the supernatant was taken for LC-MS/MS analysis.
A standard curve of the ln residual rate of the drug in the incubation system with respect to the incubation time was plotted by using Excel software, linear regression was performed to obtain a slope k, and the half-life T1/2 (min) and the intrinsic clearance CLint (mL/min/kg) value were calculated according to the following formula: […]

A short description of series [2]: Oil solubility test in benzyl benzoate (HPLC). Type of series: physicochemical. The conditions noted are these: organic solvent or mixture, thermodynamic from solid, 25° C., shaken 2 h. Here is the method:
The solubility test was performed by quantitative analysis using an external standard method of high-performance liquid chromatography.
Reference sample solution: 10 mg of reference sample was weighed, placed in a 20 mL volumetric flask, diluted to the scale with 80% acetonitrile, and shaken uniformly.
Test sample solution: an appropriate amount of sample was dissolved in benzyl benzoate to obtain a saturated solution. The mixture was placed in a shaker and shaken at 25° C. and 800 rpm for 2 h. The sample solution was filtered, and 100 μL of filtrate was added to a 10 mL volumetric flask, diluted to the scale with 80% acetonitrile, and shaken uniformly.

The structures appear in SMILES notation. ≈ marks a conversion by molar mass, not a printed value.

`CC(C)OC(=O)OCN1C(=O)CCc2ccc(CCN3CCN(c4cc(F)cc5sccc45)CC3)cc21` [Compound 2]: in series [1], the half-life at 1 μM was 0.69 min and the CLint scaled at 1 μM stood at 2530 mL/min/kg. The solubility at 2 h in series [2] came out at 75 mg/mL (≈ 143 mM).

For the compound `CCCCCCCCCCCC(=O)OCN1C(=O)CCc2ccc(CCN3CCN(c4cc(F)cc5sccc45)CC3)cc21` [Compound 3], in series [1], the half-life at 1 μM came to 367 min and the CLint scaled at 1 μM amounted to 4.73 mL/min/kg. Also, in series [2], the solubility at 2 h was more than 200 mg/mL.

With `CC(=O)OCN1C(=O)CCc2ccc(CCN3CCN(c4cc(F)cc5sccc45)CC3)cc21` [Compound 5], in series [1], the half-life at 1 μM was 0.87 min and the CLint scaled at 1 μM was determined as 2000 mL/min/kg. Further, in series [2], the solubility at 2 h was found to be 23.4 mg/mL (≈ 48.7 mM).

With `CCCCC(=O)OCN1C(=O)CCc2ccc(CCN3CCN(c4cc(F)cc5sccc45)CC3)cc21` [Compound 6], in series [1], the half-life at 1 μM is 1 min and the CLint scaled at 1 μM came out at 1720 mL/min/kg. Also, in series [2], the solubility at 2 h is 166 mg/mL (≈ 317 mM).

`CCCCCCCCCC(=O)OCN1C(=O)CCc2ccc(CCN3CCN(c4cc(F)cc5sccc45)CC3)cc21` [Compound 7, (7-(2-(4-(6-fluorobenzo[b]thiophen-4-yl)piperazin-1-yl)ethyl)-2-oxo-3,4-dihydroquinolin-1(2H)-yl)methyl decanoate]: the “Metabolic stability in human liver microsomes (in words)” value in series [1] (human liver microsomes) is “good metabolic stability”. Moreover, in series [1], the half-life at 1 μM was determined as 30 min and the CLint scaled at 1 μM worked out at 56.8 mL/min/kg. Moreover, the solubility at 2 h in series [2] was more than 200 mg/mL.

Turning to `CCCCCCCCCCCCCCCCC(=O)OCN1C(=O)CCc2ccc(CCN3CCN(c4cc(F)cc5sccc45)CC3)cc21` [Compound 67, (7-(2-(4-(6-Fluorobenzo[b]thiophen-4-yl)piperazin-1-yl)ethyl)-2-oxo-3,4-dihydroquinolin-1(2H)-yl) methyl heptadecanoate], the solubility at 2 h in series [2] was more than 200 mg/mL.

Turning to `CCCCCCCCCCCCCCCCCC(=O)OCN1C(=O)CCc2ccc(CCN3CCN(c4cc(F)cc5sccc45)CC3)cc21` [Compound 68, (7-(2-(4-(6-Fluorobenzo[b]thiophen-4-yl)piperazin-1-yl)ethyl)-2-oxo-3,4-dihydroquinolin-1(2H)-yl) methyl stearate], in series [2], the solubility at 2 h is more than 200 mg/mL.

For the compound `CCCCCCCCCCCCCCCCCCCC(=O)OCN1C(=O)CCc2ccc(CCN3CCN(c4cc(F)cc5sccc45)CC3)cc21` [Compound 69, (7-(2-(4-(6-Fluorobenzo[b]thiophen-4-yl)piperazin-1-yl)ethyl)-2-oxo-3,4-dihydroquinolin-1(2H)-yl) methyl icosanoate], the solubility at 2 h in series [2] was more than 200 mg/mL.

As for `CCCCCCCCCCNC(=O)OCN1C(=O)CCc2ccc(CCN3CCN(c4cc(F)cc5sccc45)CC3)cc21` [Compound 71, (7-(2-(4-(6-Fluorobenzo[b]thiophen-4-yl)piperazin-1-yl)ethyl)-2-oxo-3,4-dihydroquinolin-1(2H)-yl) methyl decylcarbamate], the solubility at 2 h in series [2] is more than 200 mg/mL.

With `C=CCCCCCCCCC(=O)OCN1C(=O)CCc2ccc(CCN3CCN(c4cc(F)cc5sccc45)CC3)cc21` [Compound 72, (7-(2-(4-(6-Fluorobenzo[b]thiophen-4-yl)piperazin-1-yl)ethyl)-2-oxo-3,4-dihydroquinolin-1(2H)-yl) methyl undec-10-enoate], the solubility at 2 h in series [2] is more than 200 mg/mL.

With `CCCCCCCC/C=C\CCCCCCCC(=O)OCN1C(=O)CCc2ccc(CCN3CCN(c4cc(F)cc5sccc45)CC3)cc21` [Compound 73, (7-(2-(4-(6-Fluorobenzo[b]thiophen-4-yl)piperazin-1-yl)ethyl)-2-oxo-3,4-dihydroquinolin-1(2H)-yl) methyl oleate], the solubility at 2 h in series [2] is more than 200 mg/mL.

As for `CCCCCCCCCCCCCCCCCCCCCC(=O)OCN1C(=O)CCc2ccc(CCN3CCN(c4cc(F)cc5sccc45)CC3)cc21` [Compound 74, (7-(2-(4-(6-fluorobenzo[b]thiophen-4-yl)piperazin-1-yl)ethyl)-2-oxo-3,4-dihydroquinolin-1(2H)-yl)methyl docosanoate], the solubility at 2 h in series [2] is more than 200 mg/mL.

For `CCCCCCCCCCCCCCCCCCCCCCCC(=O)OCN1C(=O)CCc2ccc(CCN3CCN(c4cc(F)cc5sccc45)CC3)cc21` [Compound 75, (7-(2-(4-(6-Fluorobenzo[b]thiophen-4-yl)piperazin-1-yl)ethyl)-2-oxo-3,4-dihydroquinolin-1(2H)-yl) methyl tetracosanoate], the solubility at 2 h in series [2] was more than 200 mg/mL.

Take `CCCCCCCCCCCCCCCCCCCCCCCCCCC(=O)OCN1C(=O)CCc2ccc(CCN3CCN(c4cc(F)cc5sccc45)CC3)cc21` [Compound 76, (7-(2-(4-(6-fluorobenzo[b]thiophen-4-yl)piperazin-1-yl)ethyl)-2-oxo-3,4-dihydroquinolin-1(2H)-yl)methyl heptacosanoate]: the solubility at 2 h in series [2] was more than 200 mg/mL.

Take `CCCCCCCC/C=C\CCCCCCCC(=O)OCn1c(=O)ccc2ccc(CCN3CCN(c4cc(F)cc5sccc45)CC3)cc21` [Compound 77, (7-(2-(4-(6-Fluorobenzo[b]thiophen-4-yl)piperazin-1-yl)ethyl)-2-oxoquinolin-1(2H)-yl)methyl oleate]: the solubility at 2 h in series [2] was more than 200 mg/mL.

As for `CCCCC(C)(C)C(=O)OCN1C(=O)CCc2ccc(CCN3CCN(c4cc(F)cc5sccc45)CC3)cc21` [Compound 108, (7-(2-(4-(6-Fluorobenzo[b]thiophen-4-yl)piperazin-1-yl)ethyl)-2-oxo-3,4-dihydroquinolin-1(2H)-yl) methyl 2,2-dimethylhexanoate], the solubility at 2 h in series [2] is more than 200 mg/mL.

Consider `CCCCCC(C)C(=O)OCN1C(=O)CCc2ccc(CCN3CCN(c4cc(F)cc5sccc45)CC3)cc21` (stereo not drawn) [Compound 110, (7-(2-(4-(6-Fluorobenzo[b]thiophen-4-yl)piperazin-1-yl)ethyl)-2-oxo-3,4-dihydroquinolin-1(2H)-yl) methyl 2-methylheptanoate], for which the solubility at 2 h in series [2] was more than 200 mg/mL.

Regarding `CCCCCC(CCCCC)C(=O)OCN1C(=O)CCc2ccc(CCN3CCN(c4cc(F)cc5sccc45)CC3)cc21` [Compound 112, (7-(2-(4-(6-Fluorobenzo[b]thiophen-4-yl)piperazin-1-yl)ethyl)-2-oxo-3,4-dihydroquinolin-1(2H)-yl) methyl 2-pentylheptanoate], in series [2], the solubility at 2 h is more than 200 mg/mL.

`CCCCCC(CCCCC)C(=O)OCn1c(=O)ccc2ccc(CCN3CCN(c4cc(F)cc5sccc45)CC3)cc21` [Compound 113, (7-(2-(4-(6-Fluorobenzo[b]thiophen-4-yl)piperazin-1-yl)ethyl)-2-oxoquinolin-1(2H)-yl)methyl 2-pentylheptanoate]: the solubility at 2 h in series [2] was more than 200 mg/mL.

Take `C=CCCCCCCCCC(=O)N1C(=O)CCc2ccc(CCN3CCN(c4cc(F)cc5sccc45)CC3)cc21` [Compound 132, 7-(2-(4-(6-Fluorobenzo[b]thiophen-4-yl)piperazin-1-yl)ethyl)-1-(undec-10-enoyl)-3,4-dihydroquinolin-2(1H)-one]: in series [2], the solubility at 2 h is more than 200 mg/mL.

`CCCCCCCCCC(=O)OCOC(=O)N1C(=O)CCc2ccc(CCN3CCN(c4cc(F)cc5sccc45)CC3)cc21` [Compound 133, (Decanoyloxy)methyl 7-(2-(4-(6-fluorobenzo[b]thiophen-4-yl)piperazin-1-yl)ethyl)-2-oxo-3,4-dihydroquinoline-1(2H)-carboxylate]: in series [2], the solubility at 2 h was more than 200 mg/mL.

Consider `CCCCCCCCCCCC(=O)OCn1c(=O)ccc2ccc(CCN3CCN(c4cc(F)cc5sccc45)CC3)cc21` [Compound 134, (7-(2-(4-(6-Fluorobenzo[b]thiophen-4-yl)piperazin-1-yl)ethyl)-2-oxoquinolin-1(2H)-yl)methyl dodecanoate], for which, in series [2], the solubility at 2 h was more than 200 mg/mL.

As usually defined, the solubility is the dissolved amount per volume that the medium holds.
